We go through five compounds from paper PMC6009892, “A novel series of pyrazole-platinum(II) complexes as potential anti-cancer agents that induce cell cycle arrest and apoptosis in breast cancer cells” (Journal of Enzyme Inhibition and Medicinal Chemistry, 2018).

Format in all cases: cell-based, human
The test system of assay [1] is caspase-8 in MDA-MB-231 breast cancer cells. Briefly: FLICA caspase-8 activity, flow cytometry, MDA-MB-231. Conditions: MDA-MB-231, 20 μM, 24 h. The method, then:
(§1) Caspase-8 activity was measured using the FLICA Caspase 8 Assay Kit (ImmunoChemistry Technologies, Bloomington, MN, USA), according to the manufacturer’s instructions. Briefly, cultured MCF-7 and MDA-MB-231 breast cancer cells (1 × 10^6) were washed with cold PBS twice and re-suspended in buffer. We added 5 µl of diluted FLICA reagent and 2 µl of Hoechst 33342 to 93 µl of cell suspension and mixed by pipetting. The cells were incubated for 60 min at 37°C. After incubation, the cells were washed twice in 400 µl of apoptosis wash buffer and centrifuged at 300 × g. After the last wash, we re-suspended the cells in 100 µl of apoptosis wash buffer supplemented with 10 µg/ml PI. Analysis was performed using the BD FACSCanto II flow cytometer, and the results were analysed with FACSDiva software (both from BD Biosciences Systems, San Jose, CA).
Background: In flow cytometry, cells or beads pass a laser one at a time.

Another assay concerns fibroblast cells. Briefly: MTT cell viability assay, fibroblasts. Conditions: 5-50 μM, read-out: IC50 (cell viability, MTT). The method, then:
(§2) MCF-7, MDA-MB-231 (both human breast cancer cell lines), and fibroblast cells were obtained from American Type Culture Collection (ATCC, Manassas, VA, USA). DMEM and FBS used in a cell culture were from Gibco (USA). Glutamine, penicillin, and streptomycin were obtained from Quality Biologicals Inc. (USA). DMEM media was blended with 50 units/ml of penicillin, 50 μg/ml of streptomycin, 10% of FBS. All cell lines were cultured in 5% CO2 and fully humidified at 37 °C. Cells were cultured in Costar flasks and sub-confluent cells were detached with 0.05% trypsin and 0.02% ethylenediaminetetraacetic acid in calcium-free phosphate-buffered saline (PBS), counted in hemocytometers, and plated at 5 × 10^5 cells/well of six-well plates (Thermo Scientific, New York, NY, USA) in 2 ml of growth medium (DMEM without phenol red with 10% CPSR1). Cells reached about 80% of confluency at day 2, and in most cases such cells were used for the assays.
(§3) The viability of cultured cells was decided through assaying the reduction of MTT to formazan. In brief, MCF-7, MDA-MB-231, and fibroblast cells line were seeded at an initial density of 1 × 10^5 cells per well. Then, the cells were incubated at 37 °C for 24 h. Subsequently, cultured cells were treated with a medium containing concentrations (5, 10, 20, 30, 40, and 50 μM) of PtPz1–PtPz6 for 24 h and 48 h. After the incubation period, MTT was added into all wells in the final concentration of 0.5 mg/ml. After that, the cells were incubated at 37 °C for 4 h. Then, by removing the medium, 200 μl of DMSO was added to all wells. As a result, insoluble formazan was dissolved in DMSO (0.5%). At 570 nm (630 nm as a reference), the absorbance was measured in an Evolution 201 reader (Thermo Scientific, Waltham, MA).
(Tetrazolium assays rely on reduction of a dye to a coloured formazan, in cell work by metabolically active cells.)

Assay [2] deals with caspase-8 in MCF-7 breast cancer cells. Briefly: FLICA caspase-8 activity, flow cytometry, MCF-7. Conditions: MCF-7, 20 μM, 24 h. The method, then:
as §1

Assay [3] deals with caspase-9 in MDA-MB-231 breast cancer cells. Kind of assay: FLICA caspase-9 activity, flow cytometry, MDA-MB-231. Conditions: MDA-MB-231, 20 μM, 24 h. The method, then:
as §1, with “Caspase-9” for “Caspase-8”, “9” for “8”, “re-suspended” for “re-suspended the”

Assay [4] has as its system caspase-3 in MDA-MB-231 breast cancer cells. Kind of assay: FLICA caspase-3 activity, flow cytometry, MDA-MB-231. The settings on record: MDA-MB-231, 20 μM, 24 h. The method, then: as §1, with “Caspase-3” for “Caspase-8”, “3” for “8”, “cultured” for “cultured MCF-7 and”
Assay [5] deals with MDA-MB-231 breast cancer cells. Briefly: MTT cell viability assay, MDA-MB-231. Conditions: 5-50 μM, read-out: IC50 (cell viability, MTT). The method, then:
as §2, §3

Assay [6] relates to MDA-MB-231 breast cancer cells. Kind of assay: DNA fragmentation TUNEL assay, MDA-MB-231. Conditions: MDA-MB-231, 20 μM, 24 h. The method, then: DNA fragmentation associated with apoptosis was examined by the terminal deoxynucleotidyltransferase (TdT)- mediated dUTP nick end labeling (TUNEL) method using a commercial assay kit (APO-Direct Kit; BD Pharmingen, San Diego, CA). After treatment, the cells were fixed with 1% paraformaldehyde in PBS (4°C, 30 min), washed in PBS, and permeabilised with ice-cold 70% ethanol. The APO-Direct Kit TUNEL assay was performed as described by the manufacturer. Briefly, the fixed cells were washed twice using the kit wash buffer, and after centrifugation the supernatant was discarded. The DNA labeling solution (containing TdT enzyme and FITC-dUTP) was added to the cell pellet, and the re-suspended mixture was incubated for 1 h at 37°C with occasional shaking. At the end of incubation time, rinse buffer was added, and after centrifugation the supernatant was discarded. We repeated the cell rinsing with rinse buffer, and then suspended the cell pellet in PI/RNase staining buffer. Cells were incubated at room temperature for 30 min and immediately analysed in a BD FACSCanto II flow cytometer. In total, 10,000 events were collected per test sample. The results were analysed with FACSDiva software (both from BD Biosciences Systems, San Jose, CA). The percentage of cells with distinctive apoptotic DNA strand breaks and distinguished by green fluorescent emission was calculated.

For assay [7], the system named is caspase-9 in MCF-7 breast cancer cells. Briefly: FLICA caspase-9 activity, flow cytometry, MCF-7. The settings on record: MCF-7, 20 μM, 24 h. The method, then:
as §1, with “Caspase-9” for “Caspase-8”, “9” for “8”, “re-suspended” for “re-suspended the”

Like-named read-outs stand apart in the source and are kept apart here. Where only a bound is given, the exact number is not on record here.

By IC50 is commonly meant the concentration needed to halve the response being measured. On to `Cc1cc(C)[n+]([Pt-2]2([n+]3c(C)cc(C)n3CO)[N](c3ccc(C(=N)N)cc3)N=[N+](c3ccc(C(=N)N)cc3)[Pt-2]([n+]3c(C)cc(C)n3CO)([n+]3c(C)cc(C)n3CO)[N](c3ccc(C(=N)N)cc3)N=[N+]2c2ccc(C(=N)N)cc2)n1CO.Cl.Cl.Cl.Cl.O.O` [PtPz1, [Pt2(N-hydroxymethyl-3,5-dimethylpyrazole)4(berenil)2]·4HCl·2H2O], for which the “increase in caspase-8 activity compared with the control” value in assay [1] is “about 10 fold”; in assay [2], approximately 12 fold. The “percent of cells with active caspase-8” value in assay [1] stood at 48.9%; in assay [2], 56.2%. For the same compound, the IC50 with fibroblast cells (24 h incubation) was 24 ± 3 µM; in the assay with fibroblast cells (48 h incubation), 19 ± 2 µM; in assay [5] (MDA-MB-231, 24 h incubation), 16 ± 1 µM; in assay [5] (MDA-MB-231, 48 h incubation), 10 ± 1 µM. In addition, the “percent of cells with active caspase-9” value was determined as 47.9% in assay [3] and 52.8% in assay [7]. Also, in assay [4], the “increase in caspase-3 activity compared with untreated cells” value is listed as “nine-fold increase”. For the same compound, in assay [4], the “percent of cells with active caspase-3” value is 30.6%. In addition, the “percent of TUNEL positive cells” value in assay [6] was found to be 58.3%.
Consider `Cc1cc(C)[n+]([Pt-2]2([n+]3[nH]c(C)cc3C)[N](c3ccc(C(=N)N)cc3)N=[N+](c3ccc(C(=N)N)cc3)[Pt-2]([n+]3[nH]c(C)cc3C)([n+]3[nH]c(C)cc3C)[N](c3ccc(C(=N)N)cc3)N=[N+]2c2ccc(C(=N)N)cc2)[nH]1.Cl.Cl.Cl.Cl.O.O` [PtPz2, [Pt2(3,5-dimethylpyrazole)4(berenil)2]·4HCl·2H2O], for which the “increase in caspase-8 activity compared with the control” value in assay [1] is “about 10 fold”; in assay [2] it was approximately 12 fold. Further, the “percent of cells with active caspase-8” value in assay [1] is 45.8%; in assay [2] it was 56.2%. The IC50 is 27 ± 2 µM in the assay with fibroblast cells (24 h incubation); 24 ± 2 µM with fibroblast cells (48 h incubation); 17 ± 2 µM in assay [5] (MDA-MB-231, 24 h incubation); 11 ± 1 µM in assay [5] (MDA-MB-231, 48 h incubation). Further, the “percent of cells with active caspase-9” value is 46.5% in assay [3] and 50.5% in assay [7]. Moreover, the “increase in caspase-3 activity compared with untreated cells” value in assay [4] was “nine-fold increase”. For the same compound, in assay [4], the “percent of cells with active caspase-3” value was 28.9%. The “percent of TUNEL positive cells” value in assay [6] stood at 55.8%.
As to `Cc1c[nH][n+]([Pt-2]2([n+]3[nH]cc(C)c3C)[N](c3ccc(C(=N)N)cc3)N=[N+](c3ccc(C(=N)N)cc3)[Pt-2]([n+]3[nH]cc(C)c3C)([n+]3[nH]cc(C)c3C)[N](c3ccc(C(=N)N)cc3)N=[N+]2c2ccc(C(=N)N)cc2)c1C.Cl.Cl.Cl.Cl.O.O` [PtPz3, [Pt2(3,4-dimethylpyrazole)4(berenil)2]·4HCl·2H2O], the “percent of cells with active caspase-8” value in assay [1] was 38.0%; in assay [2] it was 48.3%. Moreover, the IC50 amounted to 32 ± 1 µM in the assay on fibroblast cells (24 h incubation); 28 ± 1 µM with fibroblast cells (48 h incubation); 20 ± 2 µM in assay [5] (MDA-MB-231, 24 h incubation); 16 ± 1 µM in assay [5] (MDA-MB-231, 48 h incubation). In addition, the results for the “percent of cells with active caspase-9” value in assay [3] and in assay [7] were 41.1% and 43.4%, respectively. Moreover, in assay [4], the “percent of cells with active caspase-3” value is 22.9%. The “percent of TUNEL positive cells” value in assay [6] was found to be 50.4%.
For the compound `Cc1ccn[nH]1.Cc1ccn[nH]1.Cc1ccn[nH]1.Cc1ccn[nH]1.Cl.Cl.Cl.Cl.N=C(N)c1ccc(N=N[N]([Pt])c2ccc(C(=N)N)cc2)cc1.N=C(N)c1ccc(N=N[N]([Pt])c2ccc(C(=N)N)cc2)cc1.O.O` [PtPz5, [Pt2(5-methylpyrazole)4(berenil)2]·4HCl·2H2O], the entries for the “percent of cells with active caspase-8” value in assay [1] and in assay [2] were 37.9% and 46.1%, respectively. For the same compound, the IC50 is 35 ± 1 µM in the assay on fibroblast cells (24 h incubation); 31 ± 2 µM with fibroblast cells (48 h incubation); 29 ± 1 µM in assay [5] (MDA-MB-231, 24 h incubation); 19 ± 2 µM in assay [5] (MDA-MB-231, 48 h incubation). Besides, the entries for the “percent of cells with active caspase-9” value in assay [3] and in assay [7] were 38.6% and 39.6%, respectively. The “percent of cells with active caspase-3” value in assay [4] is given as 21.0%. For the same compound, the “percent of TUNEL positive cells” value in assay [6] is recorded as 31.6%.
As for `CCn1ccc[n+]1[Pt-2]1([n+]2cccn2CC)[N](c2ccc(C(=N)N)cc2)N=[N+](c2ccc(C(=N)N)cc2)[Pt-2]([n+]2cccn2CC)([n+]2cccn2CC)[N](c2ccc(C(=N)N)cc2)N=[N+]1c1ccc(C(=N)N)cc1.Cl.Cl.Cl.Cl.O.O` [PtPz6, [Pt2(N-ethylpyrazole)4(berenil)2]·4HCl·2H2O], the “percent of cells with active caspase-8” value in assay [1] was 21.1%; in assay [2], 21.0%. Further, the half-maximal inhibitory concentration (IC50) is more than 50 µM in the assay on fibroblast cells (24 h incubation); more than 50 µM in the assay on fibroblast cells (48 h incubation); more than 50 µM in assay [5] (MDA-MB-231, 24 h incubation); 39 ± 2 µM in assay [5] (MDA-MB-231, 48 h incubation). The figures for the “percent of cells with active caspase-9” value in assay [3] and in assay [7] were 24.6% and 24.1%, respectively. In addition, in assay [4], the “percent of cells with active caspase-3” value was determined as 11.0%. Besides, the “percent of TUNEL positive cells” value in assay [6] is given as 13.2%.
